# Laboratory results published in ChEMBL document CHEMBL4613260, “NF-κB Inhibitory and Antibacterial Helvolic and Fumagillin Derivatives from Aspergillus terreus” (J Nat Prod, 2020).
# Activity calls are given as the source filed them. The calls are words filed in the database; no cut-off is given here.
# What was measured:
# Staphylococcus aureus [1] = assay: Antibacterial activity against Staphylococcus aureus ATCC 43300 after 24 hrs by resazurin dye based broth microdilution method; assay type: functional; conditions: ATCC 43300, 24 h
# Escherichia coli [2] = assay: Antibacterial activity against Escherichia coli ATCC 9637 after 24 hrs by resazurin dye based broth microdilution method; assay type: functional; conditions: W ATCC 9637, 24 h
# HEK293 = assay: Cytotoxicity against HEK293 cells at 50 uM by SRB assay; assay type: cell-based; conditions: human, hek293, 50 µM
# A2780 = assay: Antiproliferative activity against human A2780 cells at 40 uM after 72 hrs by Cyquant assay; assay type: functional, cell-based
# [3] = Inhibition of TNFalpha-induced NFkappaB activation in human HEK293 cells after 6 hrs by luciferase assay; assay type: cell-based; conditions: HEK293, 6 h
# Staphylococcus aureus [4] = assay: Antibacterial activity against Staphylococcus aureus ATCC 43300 at 50 ug/ml after 24 hrs by resazurin dye based broth microdilution method; assay type: functional, organism-based
# Escherichia coli [5] = assay: Antibacterial activity against Escherichia coli ATCC 9637 at 50 ug/ml after 24 hrs by resazurin dye based broth microdilution method; assay type: functional, organism-based; conditions: W ATCC 9637
MIC (Staphylococcus aureus [1]),MIC (Escherichia coli [2]),IC50 [3],SMILES,Activity (HEK293),Activity (A2780),Activity (Staphylococcus aureus [4]),Activity (Escherichia coli [5])
50 µg/mL,25 µg/mL,6.5 µM,CC(=O)O[C@H]1C[C@@]2(C)[C@@H](CC[C@H]3[C@@]4(C)CCC(=O)[C@@H](C)[C@@H]4[C@H](OC(C)=O)C(=O)[C@@]32C)/C1=C(\CCC=C(C)C)C(=O)O,Non-Toxic,inactive,,
12.5 µg/mL,25 µg/mL,,CC(=O)O[C@H]1C[C@@]2(C)[C@@H](CC[C@H]3[C@@]4(C)CCC(=O)[C@@H](C)[C@@H]4[C@H](O)C(=O)[C@@]32C)/C1=C(\CCC=C(C)C)C(=O)O,Non-Toxic,inactive,,
6.25 µg/mL,25 µg/mL,,CC(=O)O[C@H]1C[C@@]2(C)[C@@H](CC[C@H]3[C@@]4(C)CCC(=O)[C@@H](C)[C@@H]4CC[C@@]32C)/C1=C(\CCC=C(C)C)C(=O)O,Non-Toxic,inactive,,
6.25 µg/mL,25 µg/mL,,CC(=O)O[C@H]1C[C@@]2(C)[C@@H](CC[C@H]3[C@@]4(C)CCC(=O)[C@@H](C)[C@@H]4C[C@@H](O)[C@@]32C)/C1=C(\CCC=C(C)C)C(=O)O,Non-Toxic,inactive,,
,,5.3 µM,Cc1ccc(S(=O)(=O)N[C@@H](Cc2ccccc2)C(=O)CCl)cc1 [TPCK],,,,

# Further lines, the compound ahead of its results:
SMILES,MIC (Staphylococcus aureus [1]),MIC (Escherichia coli [2]),IC50 [3],Activity (HEK293),Activity (A2780),Activity (Staphylococcus aureus [4]),Activity (Escherichia coli [5])
O=C(N[C@H](CO)[C@H](O)c1ccc([N+](=O)[O-])cc1)C(Cl)Cl [CHLORAMPHENICOL],19.4 µM,9.66 µM,,,,,
Cc1ccc(S(=O)(=O)/C=C/C#N)cc1,,,11 µM,,,,
CC(=O)O[C@H]1C[C@@]2(C)[C@@H](CC[C@H]3[C@@]4(C)C=CC(=O)[C@@H](C)[C@@H]4[C@H](OC(C)=O)C(=O)[C@@]32C)/C1=C(\CCC=C(C)C)C(=O)O [HELVOLIC ACID],12.5 µg/mL,3.12 µg/mL,2.7 µM,Non-Toxic,inactive,,
CO[C@@H]1[C@H](OC(=O)/C=C/C=C/C=C/C=C/C(=O)O)CC[C@]2(CO2)[C@H]1[C@@]1(C)O[C@@H]1CC=C(C)C [FUMAGILLIN],,,,Non-Toxic,inactive,inactive,inactive
CO[C@@H]1[C@H](OC(=O)/C=C/C=C/C=C/C(=O)O)CC[C@]2(O)CO[C@](C)([C@H](O)CC=C(C)C)[C@@H]12,,,,Non-Toxic,inactive,inactive,inactive
